The record followed here is the SangsterLogP compilation.

A short description of the data set: method code SF-RC, from DOI: 10.1021/acs.jmedchem.5b00440, PMID: 26327138. The following applies: pH 7.4.
What is called logD is lipophilicity at a set pH, counting ionised and neutral species. `CN(C)c1ccc(/C=C/c2cc3ccc(I)cc3s2)cn1`: the pH-dependent lipophilicity (logD) came out at 2.85. `CN(C)c1ccc(C=Cc2cc3ccc(I)cc3s2)cc1` showed a pH-dependent lipophilicity (logD) of 2.4. The same measure for `Ic1ccc2cc(/C=C/c3ccccc3)sc2c1`: 2.34. The result for `Ic1ccc2cc(/C=C/c3cccnc3)oc2c1` reads 3.13; that for `CN(C)c1ccc(/C=C/c2nc3ccc(I)cc3s2)cn1`, 3.25. The same measure for `CN(C)c1ccc(/C=C/c2nc3ccc(I)cc3[nH]2)cn1`: 3.11; for `Ic1ccc2nc(/C=C/c3cccnc3)[nH]c2c1`: 3.15; for `Ic1ccc2nc(/C=C/c3ccccc3)oc2c1`: 3.95. `Ic1ccc2cc(/C=C/c3ccccc3)oc2c1` had a pH-dependent lipophilicity (logD) of 2.38. The result for `Ic1ccc2cc(/C=C/c3cccnc3)sc2c1` reads 2.95; that for `Ic1ccc2nc(/C=C/c3cccnc3)oc2c1`, 3.35; that for `CN(C)c1ccc(/C=C/c2cc3ccc(I)cc3o2)cc1`, 2.11. The same measure for `Ic1ccc2nc(/C=C/c3ccccc3)[nH]c2c1`: 3.25. Take `CN(C)c1ccc(/C=C/c2nc3ccc(I)cc3s2)cc1`: the log distribution coefficient (logD) is 3.15.
